Measurements published in article PMC5007270, “[^68Ga]NODAGA-RGD – Metabolic stability, biodistribution, and dosimetry data from patients with hepatocellular carcinoma and liver cirrhosis” (European Journal of Nuclear Medicine and Molecular Imaging, 2016).
Entries after “also recorded” stand apart in the source; their conditions may differ. Where two headings read alike, the source gives them in different places.

Assays:
[1] = in vivo; cited from earlier work
Description: The radiation dose estimates from this study indicate low radiation burden for patients during a [^68Ga]NODAGA-RGD PET scan. The total effective dose was in the range of other radiolabeled RGD-peptides used in clinical studies (e.g., [^18F]Galacto-RGD, Fluciclatide, and RGD-K5; for overview see [6]) as well as other commonly used oncologic PET tracers such as [^18F]FDG (between 20 and 30 μSv/MBq). Even if 200 MBq [^68Ga]NODAGA-RGD (average in this study was 167 ± 10 MBq) would have been injected, the effective dose would have only been 4.3 mSv. This is well within the limits of risk c ...

[2] = Safety and tolerability, phase I clinical study; type: in vivo, human
Description: (§1) The study included nine patients, and was approved by the ethics committee of the Medical University of Innsbruck and the Austrian Competent Authority (BASG, EudraCT No. 2013-003741-42). Informed written consent was obtained from all patients. Inclusion criteria were untreated HCC lesions in patients with liver cirrhosis Child–Pugh class A or B. Diagnosis and exact number and size of HCC lesions was confirmed by a multiphasic CT or MRI according to EASL/EORTC guidelines. Exclusion criteria were decompensated liver cirrhosis Child–Pugh class C, uncontrolled complications of portal hypertension (refractory ascites, advanced hepatic encephalopathy or large esophageal varices), and advanced renal insufficiency with an eGFR below 30 ml/min. Baseline examinations included CT or MRI scan, physical examination, ECG, and laboratory tests (including creatinine, blood count, transaminases, bilirubin, and coagulation parameters) not older than 14 days prior to the PET scan. Physical examination and laboratory tests were repeated on the day after the PET scan and during further follow-up visits to assess possible adverse reactions.

[3] = Metabolite analysis of blood samples by RP-HPLC; type: in vivo; conditions: human blood 30 and 60 min p.i., n = 3; acetonitrile extraction, RP-HPLC C18, 30-s fractions, gamma counter
Experimental: (§2) Blood samples were collected 30 and 60 min and urine 60 min after tracer injection. Blood samples (approx. 15 ml) were centrifuged at 2,500 rpm for 5 min. The supernatant was treated with acetonitrile (1:1) and centrifuged at 3,000 rpm for 3 min. To remove the organic solvent, 1 ml of the supernatant was treated with an argon stream and approx. 300 μl of the remaining solution was analyzed. For urine analysis, an aliquot of 1 ml was passed through a sterile filter (Millex GV, Merck KGaA, Darmstadt, Germany), washed with 1 ml water (which was separately collected) and 50 μl of the filtrate was analyzed.
(§3) Analysis of metabolites was carried out using reversed-phase high-performance liquid chromatography (RP-HPLC) systems. For blood sample analysis, a Dionex P680 Pump (Germering, Germany) with a sample loop of 1 ml and a SRD Nucleosil 120-3C18 column (150 × 3 mm; Vienna, Austria) were used and fractions of 30 s were collected manually and counted in a 2480 Wizard^2 3″ automatic gamma counter (PerkinElmer, Vienna, Austria). For urine analysis, a Dionex Ultimate 3000 RS with an ACE 3C18 column (150 × 3 mm; Aberdeen, Great Britain) and a raytest Gabi radiometric detector (raytest Isotopenmessgeraete GmbH, Straubenhardt, Germany) were used. […]

[4] = Metabolite analysis of urine samples by RP-HPLC; type: in vivo; conditions: human urine 60 min p.i., n = 6; RP-HPLC C18, radiometric detector
Experimental: as §2, §3

[5] = PET/CT biodistribution (%ID/l, SUV); type: in vivo, human; conditions: for SUV at 1 h / tissue uptake dose at 1 h / SUV: human, total radioactivity; for SUV at 1 h / SUV: intravenous; for SUV at 1 h / tissue uptake dose at 1 h: 60 min p.i.; for tissue uptake dose at 1 h: PET VOI; for SUV: average of all patients
Experimental: For each patient, a total of three PET/CT scans were performed using a Discovery PET/CT 690 VCT scanner (GE Healthcare, Milwaukee, WI, USA). The patients were allowed to urinate after the second scan and a sample of the urine was collected for metabolic analysis. For all patients, the region from upper thigh to the skull/cranium was covered by a seven-bed emission scan (2 min per bed position; field of view is 15.2 cm with overlapping acquisitions, resulting in a length of 12.3 cm for each bed position) performed in caudocranial direction. The mean starting times of the three scans were 8.3 ± 2.1, 36.9 ± 2.8, and 75.1 ± 3.4 min after tracer injection, respectively. Injected activity ranged from 154 to 184 MBq [^68Ga]NODAGA-RGD corresponding with approx. 10–12 μg peptide. X-ray CT transmission scans were performed twice, before the first and the third scan, to correct for gamma ray attenuation and to obtain the anatomical data required for drawing of the volume of interest (VOI). A second CT scan was required to guarantee the same positioning of VOIs (as for first and second scan) for image analysis because of patient movement.
Positron emission data were reconstructed using an ordered-subsets expectation maximization algorithm. Reconstructions were performed with two iterations and 24 subsets. The images were corrected for attenuation using CT data collected over the same regions as for emission imaging. For image analysis, Hermes software (Version P5 gold 4.4-B; Hermes Medical Solutions AB, Stockholm, Sweden) was used. Images were calibrated to Bq/ml for radiation dosimetry estimates.
(§4) To obtain the time activity curves and to calculate the residence times, VOIs were placed in the corresponding organs (liver, urine bladder, spleen, kidneys, small intestine, muscle, lung, and left ventricle). The diameter of the VOIs was set to 2.5 cm for all organs with the exception of the liver, where it was set to 5 cm and placed in the center of the corresponding organ to avoid underestimated organ radioactivity because of partial-volume effects. Due to patient movement, the PET/CTs were fused between second and third scan to guarantee the identical position of VOIs at different scans.

HCC lesions = assay: Tracer accumulation in HCC lesions (PET/CT); type: in vivo, human; conditions: nine patients, HCC lesions identified by CT/MRI
Description: as §1, with “Baseline examinations included CT or MRI scan, physical examination, ECG, and laboratory tests (including creatinine, blood count, transaminases, bilirubin, and coagulation parameters) not older than 14 days prior to the PET scan. Physical examination and laboratory tests were repeated on the day after the PET scan and during further follow-up visits to assess possible adverse reactions.” left out
To obtain the time activity curves and to calculate the residence times, VOIs were placed in the corresponding organs (liver, urine bladder, spleen, kidneys, small intestine, muscle, lung, and left ventricle). The diameter of the VOIs was set to 2.5 cm for all organs with the exception of the liver, where it was set to 5 cm and placed in the center of the corresponding organ to avoid underestimated organ radioactivity because of partial-volume effects. […]

[6] = Radiation dosimetry (OLINDA/EXM); type: in vivo, human
Experimental: For dosimetry calculations, the OLINDA/EXM software (Version 1.1, copyright Vanderbilt University, 2007) was used. Radioactivity in the source organs was determined by multiplying the measured radioactivity concentration (Bq/ml) by the organ masses from the OLINDA adult men phantom; the data were body weight- and lean body mass index-corrected; furthermore, kidney mass was patient-corrected by CT scan.
(§5) Urinary bladder radioactivity was determined from three VOIs at least 2.5 cm in diameter drawn inside the bladder. Subsequently, the urinary bladder volume was measured by drawing freehand ROIs around bladder contour at each of the three emission scans. The volume was calculated by HERMES software. The results were used to calculate the urine bladder content residence time.

[7] = Organ/tissue residence times; type: in vivo, human; conditions: all patients
Description: as §4
Because of the limited number of measured time points, a monoexponential fit based on the decay corrected data was used for calculation of organ residence times.
as §5

[8] = design: method as in PMID 18483090; conditions: 60 min after injection; cited from earlier work
[9] = i.v., OLINDA/EXM, individual residence times, mean of patients
[10] = i.v., OLINDA/EXM, individual residence times, mean of patients, voiding after second scan

Molecule: OC[C@H]1OC(O)[C@H]([18F])[C@@H](O)[C@@H]1O (stereo partly drawn) [[^18F]FDG, 2-[F-18]fluoro-2-deoxy-D-glucose]
- effective dose [1]: 20-30 μSv/MBq

Molecule: N=C(N)NCCC[C@@H]1NC(=O)[C@H](CCCCNC(=O)CCC(C(=O)O)N2CCN(CC(=O)O)CCN(CC(=O)O)CC2)NC(=O)[C@@H](Cc2ccccc2)NC(=O)[C@H](CC(=O)O)NC(=O)CNC1=O (stereo partly drawn) [[^68Ga]NODAGA-RGD, metal not drawn]
- changes in kidney, liver, or heart function during follow-up ([2]; clinical and biochemical investigations, nine patients): no significant changes
- drug-/procedure-related adverse effects ([2]; nine male patients with HCC and liver cirrhosis, i.v. 154-184 MBq): no drug-related adverse effects were observed; also recorded: no procedure-related adverse reactions were observed
- tolerability ([2]; nine male patients with HCC and liver cirrhosis, i.v. 154-184 MBq (approx. 10-12 μg peptide)): well tolerated in all patients
- metabolites in blood [3]: No metabolites could be detected; also recorded: No metabolites were detected
- metabolites in urine [4]: No metabolites could be detected; also recorded: No metabolites were detected
- SUV at 1 h ([5]; bladder, patients, read-out: median SUV, bladder): 31 SUV
- SUV at 1 h ([5]; blood, patients, read-out: median SUV, blood): 0.72 SUV
- tissue uptake dose at 1 h ([5]; blood, patients, read-out: %ID/l, blood): 0.56 ± 0.43 %ID
- SUV at 1 h ([5]; intestine, patients, read-out: median SUV, intestine): 0.88 SUV
- tissue uptake dose at 1 h ([5]; intestine, patients, read-out: %ID/l, intestine): 0.54 ± 0.39 %ID
- SUV at 1 h ([5]; kidneys, patients, read-out: median SUV, kidneys): 4.5 SUV
- SUV at 1 h ([5]; liver, patients, read-out: median SUV, liver): 2.9 SUV
- SUV ([5]; liver, first scan (8 ± 2 min p.i.), read-out: mean SUV in the liver, first image): 3.8 SUV
- SUV ([5]; liver, last scan (75 ± 4 min p.i.), read-out: mean SUV in the liver, last image): 2.9 SUV
- SUV at 1 h ([5]; lung, patients, read-out: median SUV, lung): 0.39 SUV
- tissue uptake dose at 1 h ([5]; lung, patients, read-out: %ID/l, lung): 0.22 ± 0.05 %ID
- SUV at 1 h ([5]; muscle, patients, read-out: median SUV, muscle): 0.26 SUV
- tissue uptake dose at 1 h ([5]; muscle, patients, read-out: %ID/l, muscle tissue): 0.16 ± 0.8 %ID
- SUV at 1 h ([5]; spleen, patients, read-out: median SUV, spleen): 3.8 SUV
- elimination ([5]; patients, PET): rapid and predominantly renal elimination
- radioactivity concentration in the bladder after voiding, % of the value before voiding ([5]; voiding between second and third scan (60 min p.i.), Fig. 3): approx. 20%
- uptake in HCC compared with background liver tissue (HCC lesions): No increased uptake; also recorded: no increased radioactivity concentration
- effective dose, 30-min bladder voiding model ([6]; OLINDA/EXM, 30-min bladder voiding model): 10.9 ± 1.9 μSv/MBq
- absorbed radiation dose, urinary bladder wall ([6]; highest absorbed dose, OLINDA/EXM): 0.26 ± 0.09 mSv/MBq
- effective dose if 200 MBq injected ([6]; hypothetical injection of 200 MBq): 4.3 mSv
- Radiation dose estimate, Adrenals, Mean [6, 9]: 7.88 μSv/MBq
- Radiation dose estimate, Brain, Mean [6, 9]: 5.21 μSv/MBq
- Radiation dose estimate, Breast, Mean [6, 9]: 5.01 μSv/MBq
- Radiation dose estimate, Gallbladder wall, Mean [6, 9]: 8.67 μSv/MBq
- Radiation dose estimate, Heart wall, Mean [6, 9]: 6.33 μSv/MBq
- Radiation dose estimate, Kidneys, Mean [6, 9]: 69.00 μSv/MBq
- Radiation dose estimate, Liver, Mean [6, 9]: 32.00 μSv/MBq
- Radiation dose estimate, Lower large intestinal wall, Mean [6, 9]: 8.98 μSv/MBq
- Radiation dose estimate, Lungs, Mean [6, 9]: 7.17 μSv/MBq
- Radiation dose estimate, Muscle, Mean [6, 9]: 6.30 μSv/MBq
- Radiation dose estimate, Osteogenic cells, Mean [6, 9]: 8.10 μSv/MBq
- Radiation dose estimate, Pancreas, Mean [6, 9]: 7.99 μSv/MBq
- Radiation dose estimate, Red marrow, Mean [6, 9]: 5.47 μSv/MBq
- Radiation dose estimate, Skin, Mean [6, 9]: 5.03 μSv/MBq
- Radiation dose estimate, Small intestinal wall, Mean [6, 9]: 15.80 μSv/MBq
- Radiation dose estimate, Spleen, Mean [6, 9]: 48.20 μSv/MBq
- Radiation dose estimate, Stomach wall, Mean [6, 9]: 1.95 μSv/MBq
- Radiation dose estimate, Testes, Mean [6, 9]: 7.15 μSv/MBq
- Radiation dose estimate, Thymus, Mean [6, 9]: 5.57 μSv/MBq
- Radiation dose estimate, Thyroid, Mean [6, 9]: 5.39 μSv/MBq
- Radiation dose estimate, Total body, Mean [6, 9]: 7.29 μSv/MBq
- Radiation dose estimate, Upper large intestinal wall, Mean [6, 9]: 7.75 μSv/MBq
- Effective dose, Mean [6, 10]: 21.50 μSv/MBq
- Radiation dose estimate, Urinary bladder wall, Mean [6, 10]: 262.00 μSv/MBq
- sum of the mean residence time ([7]; all organs): 1.11 h
- residence time, Remainder of body, Mean [7]: 42.2 (MBq × h/MBq) × 10^2
- residence time, Blood, Mean ([7]; monoexponential fit): 0.011 h
- residence time, Kidneys, Mean ([7]; monoexponential fit): 0.054 h
- residence time, Liver, Mean ([7]; monoexponential fit): 0.113 h
- residence time, Lungs, Mean ([7]; monoexponential fit): 0.011 h
- residence time, Muscle, Mean ([7]; monoexponential fit): 0.246 h
- residence time, Small intestine, Mean ([7]; monoexponential fit): 1.6 (MBq × h/MBq) × 10^2
- residence time, Spleen, Mean ([7]; monoexponential fit): 1.8 (MBq × h/MBq) × 10^2

Molecule: [^18F]Fluciclatide
- intact tracer in blood [8]: 74%
